Assay [1] concerns the target T1, cyt c (Homo sapiens, UniProt P99999). The experiment in a line: Cyclic voltammetry of cyt c in solution.
The target in assay [2] is T1, cyt c. The experiment in a line: Photoluminescence of cyt c (532.8 nm laser excitation). To be noted: excitation 532.8 nm. From the text:
A light source 140, such as a laser or light-emitting diode (LED), illuminates the doped cyt c layer 110 at an excitation wavelength, such as 532.8 nm. […] (As understood by those skilled in the art, the gap between the valence band and the excited state is […] to the excitation wavelength.) After a short relaxation time, the electron decays from the excited state to a conduction band. When the electron relaxes to valence band from the conduction band, the doped cyt c layer 110 emits a photon at a luminescence wavelength, such as 650 nm, fixed by the gap between the valence and conduction bands.
Thus, as the aromatic-cationic peptide or aromatic-cationic peptide/cardiolipin or cardiolipin concentration in the doped cyt c layer 110 varies due to changes in the pH and/or temperature of the test substrate 130, the intensity at the luminescence wavelength varies as well. Detecting this change in intensity with a photodetector 150 yields an indication of the pH and/or temperature of the test substrate 130.
Photoluminescence (PL) was carried out to examine the effects of SS-31 on the electronic structure of conduction band of the heme of cyt c, an energy state responsible for electronic transport (FIG. 3). A […] laser (532.8 nm) was used to excite electrons in cyt c (FIG. 2A). Strong PL emission in cyt c state can be clearly identified at 650 nm (FIG. 2B).

The next assay deals with cyt c heme (Homo sapiens, UniProt P99999). The experiment in a line: Circular dichroism of cyt c Soret band. To be noted: negative peak at 415 nm without peptide; FIG. 4. It counts as binding. The protocol: Circular dichroism (Olis spectropolarimeter, DSM20) was carried out to monitor Soret band (negative peak at 415 nm), as a probe for the π-π* heme environment in cyt c (FIG. 4). […] The increase in π-π* interaction around the heme would enhance electron tunneling which would be favorable for electron diffusion.

Assay [3] deals with isolated rat kidney mitochondria. The experiment in a line: O2 consumption of isolated rat kidney mitochondria (Oxygraph). It counts as biochemical. The protocol: (§1) Fresh mitochondria were isolated from rat kidney as described previously. Electron flux was measured by O2 consumption (Oxygraph Clark electrode) as previously described using different substrates for C1 (glutamate/malate), C2 (succinate), and C3 (TMPD/ascorbate). Assays were carried out under low substrate conditions in order to avoid saturating the enzyme reactions. ATP production in isolated mitochondria was determined kinetically using the luciferase method (Biotherma) in a 96-well luminescence plate reader (Molecular Devices). The initial maximal rate for ATP synthesis was determined over the first minute.
Oxygen consumption of isolated rat kidney mitochondria was determined using the Oxygraph (FIG. 5). Rates of respiration were measured in the presence of different concentrations of SS-31 in state 2 (400 μM ADP only), state 3 (400 μM ADP and 500 μM substrates) and state 4 (substrates only). All experiments were done in triplicate with n=4-7.
(§2) SS-20 or SS-31 was added at 100 μM concentrations to isolated mitochondria in respiration buffer containing 0.5 mM succinate (complex II substrate) and 400 μM ADP. Similar increases in O2 consumption were observed when low concentrations of complex I substrates (glutamate/malate) were used (data not shown).
SS-20 or SS-31 was added at 10 μM or 100 μM concentrations to isolated mitochondria in respiration buffer containing glutamate/malate (complex I substrate), 0.5 mM succinate (complex II substrate) or 3 μM TMPD/1 mM ascorbate (direct reductant of cyt C). 400 μM ADP was added to initiate State 3 respiration.

A further assay has as its system isolated mitochondria. The experiment in a line: ATP synthesis in isolated mitochondria. It counts as biochemical, rat. The protocol: as §1
The rate of mitochondrial ATP synthesis was determined by measuring ATP in respiration buffer collected from isolated mitochondria 1 min after addition of […] (FIG. 6). ATP was assayed by HPLC. All experiments were carried out in triplicate, with n=3.
as §2
Increase in electron flux in the electron transport chain can either result in increase in ATP synthesis or increase in electron leak and generation of free radicals. ATP synthesis in isolated mitochondria was assayed by HPLC.

Assay [4] deals with heme environment of cytochrome c (with CL) (Homo sapiens, UniProt P99999). The experiment in a line: Soret CD spectrum of cyt C in the presence of CL. To be noted: cyt C 10 μM; CL 30 μg/ml; peptide 10 μM; 20 mM HEPES pH 7.5, 25° C.; FIG. 24. It is filed as binding. On the procedure:
Circular dichroism (CD) was carried out to examine the effects of the peptides on protecting the heme environment of cyt C from the acyl chain of CL. For heme proteins, the Soret CD spectrum is strictly correlated with the heme pocket conformation. In particular, the negative 416-420 nm Cotton effect is considered diagnostic of Fe(III)-Met80 coordination in native cyt C (Santucci and Ascoli, 1997). […] CD spectra were obtained using AVIV CD Spectrometer Model 410.
Changes in the Soret CD spectrum of cyt C (10 μM) were recorded in the absence (dotted line) and presence (dashed line) of 30 μg/ml CL, plus addition of different peptides (10 μM) (solid line) (FIG. 24). CD measurements were carried out using 20 mM HEPES, pH 7.5, at 25° C. and expressed as molar ellipticity (θ) (m Deg).

The target in another assay is cytochrome c-CL complex (Homo sapiens, UniProt P99999). The experiment in a line: Cytochrome c/CL peroxidase activity (amplex red). It is filed as biochemical. The source says:
The six coordination of the heme in cytochrome c prevents direct interaction of H2O2 with the catalytic metal site, and native cytochrome c in solution is a poor peroxidase. Upon interaction with CL, cytochrome c undergoes a structural change with rupture of the Fe-Met80 coordination. […] The mechanism of action of cytochrome c peroxidase is similar to that of other peroxidases, such as horse radish peroxidase (HRP). Thus it is possible to use the amplex red-HRP reaction to investigate cytochrome c peroxidase activity. In the presence of peroxidase, amplex red (AR) reacts with H2O2 to form the red-fluorescent oxidation product, resorufin (Ex/Em=571/585).
Cytochrome c (2 μM) was mixed with CL (25 μg/ml) and 10 μM H2O2 in 20 mM HEPES, pH 7.4. Amplex red (50 μM) was then added and fluorescence emission monitored in real time using Hitachi F4500 fluorescence spectrophotometer. Addition of amplex red elicited rapid increase in fluorescence signal due to resorufin formation, providing direct evidence for peroxidase activity of cytochrome c/CL complex (FIG. 29A).

T1 sequence (P99999 2-105 limits assumed, species assumed): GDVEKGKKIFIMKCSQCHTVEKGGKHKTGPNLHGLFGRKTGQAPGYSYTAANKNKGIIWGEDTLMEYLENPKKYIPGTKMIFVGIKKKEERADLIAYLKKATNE
Sequence of cytochrome c-CL complex (P99999 2-105 limits assumed, species assumed, one chain of several): as the sequence (P99999 2-105 limits assumed, species assumed) above
Sequence of cyt c heme (P99999 2-105 limits assumed, species assumed): as above
Sequence of heme environment of cytochrome c (with CL) (P99999 2-105 limits assumed, species assumed): as above

As to D-Arg-2′6′Dmt-Lys-Phe-NH2 [SS-31], the “current for reduction and oxidation processes of cyt c” value on cyt c [1] (Au working electrode, Ag/AgCl reference, FIG. 2 upper panel) is “increased current for both reduction and oxidation processes”. Moreover, at cyt c [1] (FIG. 2 upper panel), the “reduction/oxidation potentials of cyt c” value is listed as “does not alter reduction/oxidation potentials”. Besides, the “increase of current (electron diffusion rate)” value at cyt c [1] (cyt c:SS31=1:2, TBE buffer, FIG. 2 lower panel) is roughly 200%. Also, the “PL intensity of cyt c at 650 nm” value at cyt c [2] is recorded as “increased dose-dependently”. The “position of Soret band negative peak after red shift” value on cyt c heme came to 440 nm. For the same substance, in assay [3] (glutamate/malate, succinate or TMPD/ascorbate, 400 μM ADP, FIG. 26), the “O2 consumption in state 3 respiration” value is “increased O2 consumption in state 3 respiration”. Besides, the “electron flux, as measured by O2 consumption” value was “can promote electron flux” in assay [3] (peptide 10 μM or 100 μM, complex I, complex II substrate or TMPD/ascorbate, FIG. 26) and “can promote electron flux” in assay [3] (peptide 100 μM, 0.5 mM succinate, 400 μM ADP, FIG. 14). For the same substance, in assay [3] (state 2, state 3 and state 4, different concentrations, FIG. 5), the “electron transfer to oxygen (rates of respiration)” value was “promoted electron transfer to oxygen without uncoupling mitochondria”. In addition, in the assay on isolated mitochondria (ATP by HPLC 1 min after addition of 400 mM ADP, FIG. 6), the “rate of mitochondrial ATP synthesis” value is “dose-dependently increased the rate of ATP synthesis”. Besides, the ATP synthesis result in the assay on isolated mitochondria (assayed by HPLC, FIG. 27) is “dose-dependently increased ATP synthesis”. The “rate of ATP production” value with isolated mitochondria (mitochondria energized with low concentrations of succinate, FIG. 15) was “significant increase in the rate of ATP production”. Besides, the “disappearance of the negative Cotton effect caused by CL (heme environment of cytochrome c)” value in assay [4] is “Protect the Heme Environment of Cytochrome C from the Acyl Chain of CL”. The “kinetics of cytochrome c peroxidase activity” value at cytochrome c-CL complex (FIG. 29B) is “dose-dependently reduced the kinetics of cytochrome c peroxidase activity”. Moreover, the “rate of amplex red peroxidation” value at cytochrome c-CL complex (cytochrome c 2 μM, CL 25 μg/ml, 10 μM H2O2, amplex red 50 μM, FIG. 29A) is “decreased the rate of amplex red peroxidation”. Also, on cytochrome c-CL complex (figure legend FIG. 29A-C, comparison at a fixed concentration of 10 μM (FIG. 29C)), the “peroxidase activity in cytochrome c/CL complex” value was “preventing peroxidase activity in cytochrome c/CL complex”.
